Assay [1] has as its target purified recombinant human FGFR2 protein (Homo sapiens (Human), UniProt P21802). Nature of the assay: Inhibitory effect on FGFR2 kinase activity. The class given is biochemical. The note with it: ATP 75 μM.
Experimental: Measurement of Inhibitory Effect on FGFR2 Kinase Activity
EDTA (final concentration: 30 mM) diluted with a separation buffer (Caliper Life Sciences, Inc.) was added thereto to terminate the kinase reaction. […] The level of phosphorylation was determined from the quantitative ratio.
Assay [2] deals with Human-derived gastric cancer OCUM-2MD3 cells. The note with it: OCUM-2MD3, 72 h.
Experimental: Human-derived gastric cancer OCUM-2MD3 cells, which overexpressed FGFR2, were subcultured daily in a Dulbecco's modified Eagle's medium (DMEM) containing 10% fetal bovine serum (FBS) at a cell density of not more than 80%. In order to initiate a test of the cell growth-inhibitory effect of the compounds, the OCUM-2MD3 cells were suspended in the above DMEM medium and seeded in a 96-well flat-bottom plate so that each well contained 3,000 cells. Then, the cells were cultured in an incubator containing 5% carbon dioxide gas at 37° C. for one day. […] The DMSO solution of the test compound was diluted with the medium used for cultivation, and the diluted solution was added to each well of the cell culture plate so that the final concentration of DMSO became 0.5%. […] The number of cells was measured at the time of the addition of the test compound and 72 hours later after culture by using a Cell Counting Kit-8 (produced by Dojindo Laboratories) according to a protocol recommended by Dojindo Laboratories. […] After completion of the reaction, the absorbance at a wavelength of 450 nm was measured by a microplate reader.
Growth inhibition rate (%)=(C−T)/(C−C0)×100 • T: absorbance of well to which test compound was added • C: absorbance of well to which test compound was not added • C0: absorbance of well measured before addition of compound

pIC50: −log10 of the molar value.

Sequence of purified recombinant human FGFR2 protein (P21802 22-821): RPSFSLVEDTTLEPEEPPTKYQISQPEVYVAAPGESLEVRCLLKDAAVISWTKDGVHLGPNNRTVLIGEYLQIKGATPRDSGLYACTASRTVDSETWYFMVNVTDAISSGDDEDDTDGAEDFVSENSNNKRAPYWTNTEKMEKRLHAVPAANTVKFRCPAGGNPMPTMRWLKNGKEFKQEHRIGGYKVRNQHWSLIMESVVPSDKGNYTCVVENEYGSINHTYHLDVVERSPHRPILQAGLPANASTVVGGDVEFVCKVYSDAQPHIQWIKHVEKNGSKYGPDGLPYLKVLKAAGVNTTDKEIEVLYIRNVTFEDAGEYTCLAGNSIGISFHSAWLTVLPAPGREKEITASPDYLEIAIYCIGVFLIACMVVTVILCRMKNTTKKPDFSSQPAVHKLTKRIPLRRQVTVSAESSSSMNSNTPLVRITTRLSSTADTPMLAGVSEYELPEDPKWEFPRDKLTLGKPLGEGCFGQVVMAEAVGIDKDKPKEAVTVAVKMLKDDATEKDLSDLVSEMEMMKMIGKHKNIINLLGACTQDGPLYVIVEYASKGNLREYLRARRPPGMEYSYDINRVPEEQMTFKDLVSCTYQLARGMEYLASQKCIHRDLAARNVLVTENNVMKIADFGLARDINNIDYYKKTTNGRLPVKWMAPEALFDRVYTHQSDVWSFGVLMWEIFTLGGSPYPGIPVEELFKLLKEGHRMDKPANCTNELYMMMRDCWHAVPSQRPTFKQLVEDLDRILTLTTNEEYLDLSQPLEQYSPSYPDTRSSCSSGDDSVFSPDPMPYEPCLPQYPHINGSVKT

With `CC(C)c1cc(C#Cc2nn([C@H]3CCN(C(=O)/C=C/CN(C)C)C3)c3ncnc(N)c23)cc(C(C)C)c1` [Ref. Ex. Compound 4, (S)-1-(3-(4-amino-3-((3,5-diisopropylphenyl)ethynyl)-1H-pyrazolo[3,4-d]pyrimidin-1-yl)pyrrolidin-1-yl)-4-(dimethylamino)but-2-en-1-one], in assay [1], the negative logarithm of the IC50 (pIC50) was < 5.00.

On to `C=CC(=O)N1C[C@@H](n2cc(C#Cc3cc(OC)cc(OC)c3)c3c(N)ncnc32)C[C@H]1C(=O)OC` [Ex. Compound 66, (2S,4S)-methyl 1-acryloyl-4-(4-amino-5-((3,5-dimethoxyphenyl)ethynyl)-7H-pyrrolo[2,3-d]pyrimidin-7-yl)pyrrolidine-2-carboxylate], for which the GI50 in assay [2] is < 0.0046 µM.

For the origin of these results see patent publication US10894048B2, “Antitumor drug for intermittent administration of FGFR inhibitor” (priority 2013, dated 2021).
